Among the data in PubChem BioAssay AID328 (DTP/NCI, 2004) are T/C values, retold here.

In this experiment the test system is BDF1 mice, P388 leukemia ip, median survival T/C. Put plainly: NCI In Vivo Anticancer Drug Screen. Data for tumor model P388 Leukemia (intraperitoneal) in B6D2F1 (BDF1) mice. The following applies: endpoint: median survival time, higher = longer survival. A digest of the protocol: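 Mice carrying the transplantable tumour receive compound or vehicle. Survival is followed in each arm, and the treated measure is divided by the vehicle measure.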

Where [1] appears, read: dose: 100.0 mg/kg/injection, schedule: Q01DX009 (ip), vehicle: Klucel (hydroxypropylcellulose) (HPC).
Setting [2] is: dose: 200.0 mg/kg/injection, schedule: Q01DX009 (ip), vehicle: Klucel (hydroxypropylcellulose) (HPC).
[3] abbreviates: dose: 50.0 mg/kg/injection, schedule: Q04DX003 (ip), vehicle: saline.
The mark [4] stands for this setting: dose: 100.0 mg/kg/injection, schedule: Q04DX003 (ip), vehicle: saline with Tween-80.
The mark [5] stands for this setting: dose: 200.0 mg/kg/injection, schedule: Q04DX003 (ip), vehicle: saline with Tween-80.
[6] abbreviates: dose: 400.0 mg/kg/injection, schedule: Q04DX003 (ip), vehicle: saline with Tween-80.
Setting [7] is: dose: 25.0 mg/kg/injection, schedule: Q01DX009 (ip), vehicle: saline.
[8] abbreviates: dose: 50.0 mg/kg/injection, schedule: Q01DX009 (ip), vehicle: saline.
Where [9] appears, read: dose: 200.0 mg/kg/injection, schedule: Q01DX009 (ip), vehicle: saline.
Setting [10] is: dose: 25.0 mg/kg/injection, schedule: Q01DX009 (ip), vehicle: saline with Tween-80.
[11] abbreviates: dose: 25.0 mg/kg/injection, schedule: Q04DX003 (ip), vehicle: saline with Tween-80.

Several values for one entry are separate records, joined by “and”; a condition that tells them apart may be missing. Equal values may be shown once. Toxic doses and inconclusive results are not listed.

For the compound `C=C(C(=O)OC1CC2CCC(C1)N2C)c1ccccc1` (stereo not drawn), the T/C is, setting by setting: (dose: 1.25 mg/kg/injection, schedule: Q01DX009 (ip), vehicle: saline) 100 % of control; (dose: 2.5 mg/kg/injection, schedule: Q01DX009 (ip), vehicle: saline) 100 % of control; (dose: 5.0 mg/kg/injection, schedule: Q01DX009 (ip), vehicle: saline) 100 % of control; (dose: 10.0 mg/kg/injection, schedule: Q01DX009 (ip), vehicle: saline) 90 % of control.

With `S=c1[nH]nc(NC2CCCCC2)s1`, the T/C runs as follows: (dose: 25.0 mg/kg/injection, schedule: Q01DX001 (ip), vehicle: Klucel (hydroxypropylcellulose) (HPC)) 100 % of control; (dose: 50.0 mg/kg/injection, schedule: Q01DX001 (ip), vehicle: Klucel (hydroxypropylcellulose) (HPC)) 112 % of control; (dose: 100.0 mg/kg/injection, schedule: Q01DX001 (ip), vehicle: Klucel (hydroxypropylcellulose) (HPC)) 87 % of control.

`n1nc(Nc2nn[nH]n2)n[nH]1`: the T/C is 90 % of control (dose: 50.0 mg/kg/injection, schedule: Q01DX009 (ip), vehicle: Klucel (hydroxypropylcellulose) (HPC)); 107 % of control under setting [1]; 110 % of control under setting [2].

Turning to `COc1ccc(OC(=O)N2C=Cc3ccccc3C2C#N)cc1` (stereo not drawn), the T/C runs as follows: under setting [3], 95 % of control; (dose: 100.0 mg/kg/injection, schedule: Q04DX003 (ip), vehicle: saline) 100 % of control; (dose: 200.0 mg/kg/injection, schedule: Q04DX003 (ip), vehicle: saline) 112 % of control.

Consider `O=C(O)c1ccccc1-c1ccccc1C(=O)O`, for which the T/C runs as follows: under setting [4], 95 % of control; under setting [5], 104 % of control; under setting [6], 104 % of control.

Regarding `O=c1c2ccccc2ncn1-c1ccc(Cl)cc1`, the T/C reads like this: (dose: 50.0 mg/kg/injection, schedule: Q01DX009 (ip), vehicle: saline with Tween-80) 97 % of control; (dose: 100.0 mg/kg/injection, schedule: Q01DX009 (ip), vehicle: saline with Tween-80) 100 % of control; (dose: 200.0 mg/kg/injection, schedule: Q01DX009 (ip), vehicle: saline with Tween-80) 100 % of control.

As for `CCOC(=O)c1cnn(-c2ccccc2)c1C`, the T/C was 104 % of control under setting [1]; 104 % of control (dose: 100.0 mg/kg/injection, schedule: Q04DX003 (ip), vehicle: Klucel (hydroxypropylcellulose) (HPC)); 100 % of control under setting [2]; 87 % of control (dose: 200.0 mg/kg/injection, schedule: Q04DX003 (ip), vehicle: Klucel (hydroxypropylcellulose) (HPC)); 90 % of control (dose: 400.0 mg/kg/injection, schedule: Q01DX009 (ip), vehicle: Klucel (hydroxypropylcellulose) (HPC)); 104 % of control (dose: 400.0 mg/kg/injection, schedule: Q04DX003 (ip), vehicle: Klucel (hydroxypropylcellulose) (HPC)).

On to `CC1=CC(=O)OC2(C1)CC1CCC2CN1C` (stereo not drawn), for which the T/C by setting is: (dose: 12.5 mg/kg/injection, schedule: Q01DX009 (ip), vehicle: saline) 110 % of control; under setting [7], 100 % of control; (dose: 25.0 mg/kg/injection, schedule: Q04DX003 (ip), vehicle: saline) 100 % of control; under setting [8], 100 % of control; under setting [3], 104 % of control.

Take `O=C1CCS2(CCC(=O)O2)O1`: the T/C is, setting by setting: under setting [8], 98 % of control; (dose: 100.0 mg/kg/injection, schedule: Q01DX009 (ip), vehicle: saline) 94 % of control; under setting [9], 98 % of control.

For the compound `[Cl][Rh][Cl].[NH-]c1ccc(S(N)(=O)=O)cc1.[NH-]c1ccc(S(N)(=O)=O)cc1.[NH-]c1ccc(S(N)(=O)=O)cc1.[NH-]c1ccc(S(N)(=O)=O)cc1`, the T/C reads like this: under setting [4], 108 % of control; under setting [5], 103 % of control; under setting [6], 107 % of control.

As to `CC(=O)C(C)=P(c1ccccc1)(c1ccccc1)c1ccccc1`, the T/C is 102 % of control under setting [7]; 120 % of control under setting [8]; 113 % of control under setting [9]; 98 % of control (dose: 400.0 mg/kg/injection, schedule: Q01DX009 (ip), vehicle: saline).

On to `CCCCOB(CCl)OCCCC`, for which the T/C by setting is: (dose: 6.25 mg/kg/injection, schedule: Q01DX001 (ip), vehicle: saline) 104 % of control; (dose: 12.5 mg/kg/injection, schedule: Q01DX001 (ip), vehicle: saline) 100 % of control; (dose: 25.0 mg/kg/injection, schedule: Q01DX001 (ip), vehicle: saline) 100 % of control.

With `O=C1c2c(Cl)cccc2C(O)(c2ccccc2)c2cccc(Cl)c21`, the T/C reads like this: (dose: 50.0 mg/kg/injection, schedule: Q01DX009 (ip), vehicle: other) 100 % of control; (dose: 100.0 mg/kg/injection, schedule: Q01DX009 (ip), vehicle: other) 92 % of control; (dose: 200.0 mg/kg/injection, schedule: Q01DX009 (ip), vehicle: other) 105 % of control.

In the case of `CC(C)c1ccc2c(c1)CC[C@H]1[C@](C)(CN=C(N)CCl)CCC[C@]21C`, the T/C reads like this: (dose: 1.56 mg/kg/injection, schedule: Q01DX009 (ip), vehicle: Klucel (hydroxypropylcellulose) (HPC)) 110 % of control; (dose: 3.13 mg/kg/injection, schedule: Q01DX009 (ip), vehicle: Klucel (hydroxypropylcellulose) (HPC)) 112 % of control; (dose: 6.25 mg/kg/injection, schedule: Q01DX009 (ip), vehicle: Klucel (hydroxypropylcellulose) (HPC)) 114 % of control.

Regarding `CN1C=NNc2ccc(Cl)cc2C1=O`, the T/C runs as follows: under setting [4], 103 % of control; under setting [5], 114 % of control; under setting [6], 109 % of control.

On to `COc1ccc(-c2cc(C)n(C)[n+]2C)cc1`, for which the T/C runs as follows: (dose: 12.5 mg/kg/injection, schedule: Q01DX009 (ip), vehicle: saline with Tween-80) 103 % of control; under setting [10], 109 % of control.

As to `O=NN(CCCl)C(=O)NC1CSCSC1`, the T/C was 92 % of control (dose: 0.7 mg/kg/injection, schedule: Q01DX009 (ip), vehicle: saline with Tween-80); 151 % of control (dose: 1.7 mg/kg/injection, schedule: Q01DX009 (ip), vehicle: saline with Tween-80); 159 % of control (dose: 2.6 mg/kg/injection, schedule: Q01DX009 (ip), vehicle: saline with Tween-80); 119 % of control (dose: 3.0 mg/kg/injection, schedule: Q04DX003 (ip), vehicle: saline with Tween-80); 250 % of control and 192 % of control (dose: 4.0 mg/kg/injection, schedule: Q01DX009 (ip), vehicle: saline with Tween-80); 152 % of control (dose: 5.0 mg/kg/injection, schedule: Q04DX003 (ip), vehicle: saline with Tween-80). Further, the T/C is, setting by setting: (dose: 6.0 mg/kg/injection, schedule: Q01DX009 (ip), vehicle: saline with Tween-80) 230 % of control and 250 % of control; (dose: 8.0 mg/kg/injection, schedule: Q04DX003 (ip), vehicle: saline with Tween-80) 185 % of control; (dose: 9.0 mg/kg/injection, schedule: Q01DX009 (ip), vehicle: saline with Tween-80) 187 % of control; (dose: 12.0 mg/kg/injection, schedule: Q01DX009 (ip), vehicle: saline with Tween-80) 184 % of control; (dose: 12.0 mg/kg/injection, schedule: Q04DX003 (ip), vehicle: saline with Tween-80) 272 % of control and 285 % of control; (dose: 18.0 mg/kg/injection, schedule: Q04DX003 (ip), vehicle: saline with Tween-80) 204 % of control. Besides, the T/C runs as follows: under setting [10], 90 % of control; under setting [11], 240 % of control and 172 % of control; (dose: 37.0 mg/kg/injection, schedule: Q04DX003 (ip), vehicle: saline with Tween-80) 272 % of control and 95 % of control.

Turning to `C1CCCC(NC2=NCCO2)CC1`, the T/C reads like this: (dose: 6.25 mg/kg/injection, schedule: Q04DX003 (ip), vehicle: saline with Tween-80) 100 % of control; (dose: 12.5 mg/kg/injection, schedule: Q04DX003 (ip), vehicle: saline with Tween-80) 100 % of control; under setting [11], 104 % of control.

As to `NSc1ccc([N+](=O)[O-])cc1`, under “dose: 100.0 mg/kg/injection, schedule: Q01DX001 (ip), vehicle: other”, the T/C is 109 % of control.
